For test [1], the system named is C6. As to the kind of experiment: Cytotoxicity against Rattus norvegicus (rat) C6 cells after 4 days by cresylecth violet-staining method. The format is functional, cell-based.
A short description of test [2]: Cytotoxicity against Rattus norvegicus Sprague-Dawley (rat) astrocytes after 4 days by cresylecth violet-staining method. The format is cell-based, Astrocyte.
The test system of test [3] is C6. Put plainly: Ratio of EDL-155 EC50 to compound EC50 for Rattus norvegicus (rat) C6 cells. The format is functional.
[4] abbreviates: Rattus norvegicus, Sprague-Dawley, Astrocyte, 96 h, read-out: EC50.

Consider `COc1cc2c(c(OC)c1)C(Cc1ccc(-c3ccccc3)cc1)N(C(=O)OC(C)(C)C)CC2` (stereo not drawn), for which the concentration giving a half-maximal response (EC50) (as a rule, the concentration at which the effect is half-maximal) is 7.54 µM in test [1] (Rattus norvegicus, C6, 96 h) and “Not Active” in test [2] (astrocyte).

On to `COc1cc2c(c(OC)c1)C(Cc1ccc(-c3ccccc3)cc1)NCC2` (stereo not drawn), for which the EC50 in test [1] (Rattus norvegicus, C6, 96 h) worked out at 2.31 µM; in test [2] (setting [4]) it was 8.95 µM.

As to `Oc1cc(O)c2c(c1)CCNC2Cc1ccc(-c2ccccc2)cc1` (stereo not drawn), the EC50 in test [1] (Rattus norvegicus, C6, 96 h) was 2.09 µM; in test [2] (setting [4]), 11.9 µM.

Take `CC(C)(C)OC(=O)N1CCc2cc(O)cc(O)c2C1Cc1ccc(-c2ccccc2)cc1` (stereo not drawn): the concentration giving a half-maximal response (EC50) worked out at 4.97 µM in test [1] (Rattus norvegicus, C6, 96 h) and 8.58 µM in test [2] (setting [4]).

With `COc1cc2c(c(OC)c1)C(Cc1ccc(Br)cc1)N(C(=O)OC(C)(C)C)CC2` (stereo not drawn), the EC50 in test [1] (Rattus norvegicus, C6, 96 h) came to 10.1 µM; in test [2] (setting [4]), 28.1 µM.

As to `Oc1cc(O)c2c(c1)CCNC2Cc1ccc(Br)cc1` (stereo not drawn), the EC50 is 12.6 µM in test [1] (Rattus norvegicus, C6, 96 h) and 23.9 µM in test [2] (setting [4]).

As to `CC(C)(C)OC(=O)N1CCc2cc(O)cc(O)c2C1Cc1ccc(Br)cc1` (stereo not drawn), the concentration giving a half-maximal response (EC50) was found to be 7.04 µM in test [1] (Rattus norvegicus, C6, 96 h) and 9.97 µM in test [2] (setting [4]).

As to `COc1ccccc1-c1ccc(CC2c3c(O)cc(O)cc3CCN2C(=O)OC(C)(C)C)cc1` (stereo not drawn), the EC50 was 7.34 µM in test [1] (Rattus norvegicus, C6, 96 h) and 67.5 µM in test [2] (setting [4]).

Consider `COc1ccccc1-c1ccc(CC2NCCc3cc(O)cc(O)c32)cc1` (stereo not drawn), for which the 50% effective concentration (EC50) in test [1] (Rattus norvegicus, C6, 96 h) was determined as 2.61 µM; in test [2] (setting [4]), 15.7 µM.

Turning to `COc1cc2c(c(OC)c1)C(Cc1ccc(-c3ccccc3OC)cc1)N(C(=O)OC(C)(C)C)CC2` (stereo not drawn), the EC50 is 59.7 µM in test [1] (Rattus norvegicus, C6, 96 h) and “Not Active” in test [2] (astrocyte).

On to `Oc1cc2c(cc1O)C(Cc1ccc(-c3ccccc3)cc1)NCC2` (racemic), for which the concentration for a half-maximal effect (EC50) in test [1] (Rattus norvegicus, C6, 96 h) came to 1.5 µM; in test [2] (setting [4]), 27.4 µM.

On to `COc1cc2c(c(OC)c1)C(Cc1ccc(-c3ccccc3OC)cc1)NCC2` (single isomer, unassigned; (+)), for which the EC50 stood at 0.26 µM in test [1] (c6) and 13.1 µM in test [2] (astrocyte, read-out: EC50).

In the case of `COc1cc2c(c(OC)c1)C(Cc1ccc(-c3ccccc3OC)cc1)NCC2.Cl` (stereo in doubt; 25), the “Ratio EC50” value in test [3] was 2.4. In addition, the EC50 amounted to 0.63 µM in test [1] (c6) and 10.8 µM in test [2] (astrocyte, read-out: EC50).

With `COc1cc2c(c(OC)c1)C(Cc1ccc(-c3ccccc3OC)cc1)NCC2` (stereo in doubt; (-)25), the figures for the EC50 in test [1] (c6) and in test [2] (setting [4]) were 5.39 µM and 15.7 µM, respectively.

On to `O=NN(CCCl)C(=O)NCCCl` [CARMUSTINE], for which the 50% effective concentration (EC50) in test [1] (Rattus norvegicus, C6, 96 h) came out at 4.8 µM; in test [2] (setting [4]), 54.8 µM.

In the case of `Cn1nnc2c(C(N)=O)ncn2c1=O` [TEMOZOLOMIDE], the EC50 in test [1] (Rattus norvegicus, C6, 96 h) stood at 16.5 µM; in test [2] (setting [4]) it was 51.8 µM.

The values above are taken from ChEMBL document CHEMBL3045681, “Synthesis and evaluation of new 1,2,3,4-tetrahydroisoquinoline analogs as antiglioma agents” (Med Chem Res, 2011).
